According to PubChem BioAssay AID1918955 (Molecular Pharmacology Branch, DTP, NCI, 2023):
“And” between values parts separate entries of the source, which are not always exact repeats. Identical values can stand only once.

Tested on: NCI/ADR-RES complex spheroid viability
Assay: Anticancer human tumor NCI/ADR-RES cell line growth inhibition;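 on viability, T/C: 100% = DMSO vehicle treated spheroids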
Details: for viability, T/C: stronger effect = lower value
Outline: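 Complex spheroids of tumor cells with HUVEC and human MSCs, exposed to iadademstat combined with other agents. Each agent tested in half-log steps from near clinical Cmax (else 10 microM top), DMSO ≤0.25%.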

[1] = curve of first compound, second compound 0.1 µM
[2] = curve of first compound, second compound 0.316 µM
[3] = curve of first compound, second compound 1 µM
[4] = curve of first compound, second compound 3.16 µM
[5] = curve of first compound, second compound 10 µM
[6] = second compound 0.1 µM, first compound 0.00316 µM
[7] = second compound 0.1 µM, first compound 0.01 µM
[8] = second compound 0.1 µM, first compound 0.0316 µM
[9] = second compound 0.1 µM, first compound 0.1 µM
[10] = second compound 0.316 µM, first compound 0.00316 µM
[11] = second compound 0.316 µM, first compound 0.01 µM
[12] = second compound 0.316 µM, first compound 0.0316 µM
[13] = second compound 0.316 µM, first compound 0.1 µM
[14] = second compound 1 µM, first compound 0.00316 µM
[15] = second compound 1 µM, first compound 0.01 µM
[16] = second compound 1 µM, first compound 0.0316 µM
[17] = second compound 1 µM, first compound 0.1 µM
[18] = second compound 3.16 µM, first compound 0.00316 µM
[19] = second compound 3.16 µM, first compound 0.01 µM
[20] = second compound 3.16 µM, first compound 0.0316 µM
[21] = second compound 3.16 µM, first compound 0.1 µM
[22] = second compound 10 µM, first compound 0.00316 µM
[23] = second compound 10 µM, first compound 0.01 µM
[24] = second compound 10 µM, first compound 0.0316 µM
[25] = second compound 10 µM, first compound 0.1 µM

SMILES | IC50 [1] [nM] | IC50 [2] [nM] | IC50 [3] [nM] | IC50 [4] [nM] | IC50 [5] [nM] | viability, T/C [6] [%] | viability, T/C [7] [%] | viability, T/C [8] [%] | viability, T/C [9] [%] | viability, T/C [10] [%] | viability, T/C [11] [%] | viability, T/C [12] [%] | viability, T/C [13] [%] | viability, T/C [14] [%] | viability, T/C [15] [%] | viability, T/C [16] [%] | viability, T/C [17] [%] | viability, T/C [18] [%] | viability, T/C [19] [%] | viability, T/C [20] [%] | further results
Cn1ncnc1C1c2n[nH]c(=O)c3cc(F)cc(c23)NC1c1ccc(F)cc1 (configuration not stated) + NC1CC1c1ccc(-c2cccc(O)c2)cc1 | > 100 | > 100 | > 100 | > 100 | > 100 | 106 | 103 | 104 | 97 | 104 | 110 | 110 | 105 | 109 | 95.8 | 100 | 102 | 100 | 97 | 97.3 | viability, T/C (second compound 0.1 µM, first compound 0.000316 µM): 101%; viability, T/C (second compound 0.1 µM, first compound 0.001 µM): 104%; viability, T/C (second compound 0.316 µM, first compound 0.000316 µM): 104%; viability, T/C (second compound 0.316 µM, first compound 0.001 µM): 107%; viability, T/C (second compound 1 µM, first compound 0.000316 µM): 98.2%; viability, T/C (second compound 1 µM, first compound 0.001 µM): 101%; viability, T/C (second compound 3.16 µM, first compound 0.000316 µM): 105%; viability, T/C (second compound 3.16 µM, first compound 0.001 µM): 99.3%; viability, T/C [21]: 93.8%; viability, T/C (second compound 10 µM, first compound 0.000316 µM): 97.1%; viability, T/C (second compound 10 µM, first compound 0.001 µM): 91.1%; viability, T/C [22]: 90.5%; viability, T/C [23]: 96.8%; viability, T/C [24]: 94.6%; viability, T/C [25]: 85.3%
Nc1ccn(C2OC(CO)C(O)C2(F)F)c(=O)n1 (configuration not stated) |  |  |  |  |  |  |  |  |  |  |  |  |  |  |  |  |  |  |  |  | viability, T/C (compound 0.000949 µM): 8.59% and 3.05%; viability, T/C (compound 0.003 µM): 3.76% and 3.9%; viability, T/C (compound 0.00949 µM): 3.95% and 4.1%; viability, T/C (compound 0.03 µM): 3.55% and 2.02%; viability, T/C (compound 0.0949 µM): 3.71% and 1.86%; viability, T/C (compound 0.3 µM): 1.91% and 1.26%; IC50 (curve of compound): < 0.949 nM
O=C(C=Cn1cnc(-c2cc(C(F)(F)F)cc(C(F)(F)F)c2)n1)NNc1cnccn1 + NC1CC1c1ccc(-c2cccc(O)c2)cc1 | 4.7 | 4.42 | 4.18 | 4.79 | 4.02 | 65.4 | 19.6 | 13 | 6.61 | 60.6 | 23.3 | 12.6 | 7.91 | 59.5 | 20.4 | 13.9 | 8.19 | 64.2 | 22.7 | 16.5 | viability, T/C (second compound 0.1 µM, first compound 0.316 µM): 1.72%; viability, T/C (second compound 0.1 µM, first compound 1 µM): 0.88%; viability, T/C (second compound 0.316 µM, first compound 0.316 µM): 2.06%; viability, T/C (second compound 0.316 µM, first compound 1 µM): 1.08%; viability, T/C (second compound 1 µM, first compound 0.316 µM): 1.99%; viability, T/C (second compound 1 µM, first compound 1 µM): 0.85%; viability, T/C [21]: 10.7%; viability, T/C (second compound 3.16 µM, first compound 0.316 µM): 2.96%; viability, T/C (second compound 3.16 µM, first compound 1 µM): 0.98%; viability, T/C [22]: 57.1%; viability, T/C [23]: 22.1%; viability, T/C [24]: 16%; viability, T/C [25]: 10.1%; viability, T/C (second compound 10 µM, first compound 0.316 µM): 5.13%; viability, T/C (second compound 10 µM, first compound 1 µM): 2.52%
